Results reported in patent US9757378B2, “Methods to modulate acute myeloid leukemia stem/progenitor cell expansion and/or differentiation” (UNIVERSITE DE MONTREAL, priority 2013, dated 2017).

System: primary human AML cells
Assay: Primary screen: differentiation of primary human AML cells in vitro (CD34/CD15, HTS flow cytometry)
Details: for percent gated cells (viability): 2 μM (commercial libraries) or 1 μg/ml (IRIC); for % increase CD34+ (%) / % increase CD34+ (cell counts) / % increase CD34+CD15− (cell counts): compared to DMSO; for % increase CD34+CD15− (%): compared to DMSO ((compound − DMSO)/DMSO*100); for CD34+CD15− cell counts compared to DMSO: in words
Protocol: AML cells were thawed in 37° C. water bath and 1:10 diluted in prewarmed Iscove's modified Dulbecco's medium (IMDM) containing 20% FBS and DNase 100 μg/ml. […] When compounds were added to the culture medium, final DMSO concentrations were 0.1% in all in vitro experiments and 0.01% when cultured cells were transplanted into NSG-mice.
Compounds were tested at 2 μM (commercial libraries) or 1 μg/ml (Medicinal Chemistry Facility, IRIC). […] For validation experiments AML cells were grown in 384-well plates with 3-8 replicates per condition.
Flow cytometry was performed on an LSR™ II cytometer equipped with an HTS-device (BD Bioscience, Primary and Secondary screens and in vitro validation experiments) or on a BD Canto™ II cytometer (BD Bioscience, Xenotransplantation and CellTrace Violet™ experiments). Cells were stained for 30 minutes at 4° C. protected from light if not otherwise indicated (CellTrace Violet™ staining). […] CD34 intensities in flow cytometry plots were set at high levels on day 0 to allow tracing of non-predictable decreases of intensities during 7 days in culture.

Compound	percent gated cells (viability)	% increase CD34+ (%)	% increase CD34+ (cell counts)	% increase CD34+CD15− (cell counts)	% increase CD34+CD15− (%)	CD34+CD15− cell counts compared to DMSO
CCOC(=O)c1c(C)cc(O)c(C)c1O [UM0120789, Methylorsellinic acid ethyl ester]	84.00%	22.49%	22.38%	52.88%	52.70%	
Oc1cc(O)cc(/C=C/c2ccccc2)c1 [UM0120964, Pinosylvin]	69.90%	24.20%	8.62%	39.69%	59.46%	
CC(C)=CCc1c(O)cc2oc(C)cc(=O)c2c1O [UM0121217, Peucenin]	83.20%	23.46%	37.27%	94.61%	74.92%	
COc1ccc(-c2cc(=O)c3ccc(O)cc3o2)cc1 [UM0117304, Pratol]	82.40%	50.40%	31.59%	47.36%	68.85%	
COc1cc(-c2ccc(N=Nc3ccc4c(S(=O)(=O)[O-])cc(S(=O)(=O)[O-])c(N)c4c3O)c(OC)c2)ccc1N=Nc1ccc2c(S(=O)(=O)[O-])cc(S(=O)(=O)[O-])c(N)c2c1O.[Na+].[Na+].[Na+].[Na+] [UM0118703, Chicago sky blue 6B]		42.39%	31.67%	42.76%	54.52%	
2′-beta-Dihydrochalcone [UM0120960]		24.69%	8.21%	41.99%	63.62%	
CCOC(=O)c1oc2c(OC)c(O)cc(O)c2c(=O)c1-c1cc(OC)c(OC)c(OC)c1 [UM0121233, 2-Ethoxycarbonyl-5,7-dihydroxy-8,3′,4′,5′-tetramethoxyisoflavone]	86.30%	15.01%	18.21%	50.24%	45.77%	
COc1ccc(-c2cc(=O)c3c(OC(C)=O)cc(OC(C)=O)cc3o2)cc1 [UM0120987, Acacetin diacetate]	81.60%	27.58%	22.16%	53.47%	59.88%	
COc1c(-c2ccccc2)oc2c(OC)cccc2c1=O [UM0121168, 3,8-Dimethoxyflavone]	80.80%	29.05%	24.97%	53.85%	58.96%	
COC(=O)/C(C)=C\CC12OC(C)(C)C3CC(C=C4C(=O)c5c(OC)c6c(c(CC=C(C)C)c5OC431)OC(C)(CCC=C(C)C)C=C6)C2=O (centres unmarked) [UM0120889, Dimethyl gambogate]		47.72%	−50.44%	−48.79%	52.62%	
CC(=O)Oc1ccc(-c2cc(=O)c3c(OC(C)=O)cc(OC(C)=O)cc3o2)cc1 [UM0121171, Apigenin triacetate]	80.10%	48.36%	17.48%	31.61%	66.25%	
N[C@@H](Cc1c[nH]c2ccccc12)C(=O)O [Tryptophan]						further reduced
O=c1c(O)c(-c2ccccc2)oc2cc(O)cc(O)c12 [UM0119448, Galangine]			−0.57%	23.06%	60.64%	
O=c1cc(-c2ccc(O)c(O)c2)oc2cc(O)cc(O)c12 [UM0118175, Luteolin]	79.80%	40.48%	4.97%	27.50%	70.76%	
Cc1cc(=O)oc2cc(O)c(O)cc12 [UM0120835, 4-Methylesculetin]	84.90%	22.85%	18.23%	104.34%	111.64%	
COc1cc(OC)c2c(=O)c(-c3ccc4c(c3)OCO4)coc2c1 [UM0121218, Derrustone]	83.90%	21.91%	25.53%	58.63%	53.68%	
CC[C@H](C)C(=O)O[C@H]1C[C@@H](C)C=C2C=C[C@H](C)[C@H](CC[C@@H]3C[C@@H](O)CC(=O)O3)[C@H]21 [UM0118699, Lovastatin]	81.00%	1.88%	−14.30%	36.94%	62.41%	
Oc1ccc(C=Cc2cc(O)cc(O)c2)cc1 [UM0118532, Resveratrol]	78.00%	22.62%	−14.19%	12.57%	60.46%	

Compound	percent gated cells (viability)	% increase CD34+ (%)	% increase CD34+ (cell counts)	% increase CD34+CD15− (cell counts)	% increase CD34+CD15− (%)	CD34+CD15− cell counts compared to DMSO
COc1ccc2c(c1)[nH]c1c(C)nccc12.Cl [UM0118303, Harmine hydrochloride]	78.60%	8.79%	−17.08%	38.52%	81.33%	
OC[C@@H]1CCCN2CCCC[C@H]12 [UM0119416, Lupinine]		10.12%	30.63%	51.77%	28.13%	
NC(=Nc1ccccc1)NC(=O)c1nc(Cl)c(N)nc1N [UM0120143, Phenamil methanesulfonate]	84.10%	30.88%	28.04%	54.83%	58.21%	
CC(C)=CCOc1cc2oc(=O)ccc2cc1O [UM0120947, Prenyletin]	81.10%	18.10%	15.58%	56.71%	60.33%	
N[C@@H]1C[C@H]1c1ccccc1.N[C@H]1C[C@@H]1c1ccccc1.O=S(=O)(O)O [UM0121497, Tranylcypromine sulfate]	76.50%	20.22%	−15.83%	19.65%	70.66%	
CC(C)Oc1ccc2c(=O)c(-c3ccccc3)coc2c1 [UM0120559, Ipriflavone]		27.34%	39.89%	54.50%	40.47%	
COc1cc(OC)c2c(=O)cc(-c3ccccc3)oc2c1 [UM0121173, 5,7-Dimethoxyflavone]	82.00%	29.43%	34.90%	53.11%	46.97%	
COc1cc2c(cc1O)C[C@H]1c3c(cc(O)c(OC)c3-2)CCN1C [UM0118103, Boldine]	87.00%	−3.69%	10.21%	50.97%	31.10%	
O=c1c2ccccc2oc2ccc(O)cc12 [UM0121186, 2-Hydroxyxanthone]	82.40%	48.93%	48.11%	65.21%	66.25%	
CC(=O)c1ccc2c(c1)N(CCCN(C)C)c1ccccc1S2.O=C(O)/C=C\C(=O)O [UM0118758, Acetopromazine maleate salt]		−0.82%	−11.68%	41.15%	57.85%	
Nc1ccccc1C(=O)CC(N)C(=O)O (centres unmarked) [Kynurenine]						further reduced
CO[C@@H]1[C@H](OC(=O)/C=C/C=C/C=C/C=C/C(=O)O)CC[C@]2(CO2)[C@H]1[C@@]1(C)O[C@@H]1CC=C(C)C [UM0121512, Fumagillin]	78.60%	31.22%	−54.59%	−46.09%	55.51%	
COc1cc(-c2oc3cc(O)ccc3c(=O)c2O)ccc1O [UM0119468, Geraldol]	78.50%	25.29%	−41.47%	−23.14%	64.06%	
Verteporfin [UM0119121]		15.38%	33.14%	58.17%	37.29%	
O=c1cc(-c2ccc(O)cc2)oc2cc(O)cc(O)c12 [UM0118614, Apigenin]		20.12%	22.02%	66.30%	63.93%	
C[C@@H]1O[C@@H](O[C@H]2[C@H](Oc3cc(O)c4c(=O)c(O)c(-c5ccc(O)cc5)oc4c3)O[C@H](CO)[C@@H](O)[C@@H]2O)[C@H](O)[C@H](O)[C@H]1O [UM0119289, Kaempferol-7-Neohesperidoside]		12.75%	29.49%	72.47%	50.39%	
O.O.O=c1c(O)c(-c2ccc(O)c(O)c2)oc2cc(O)cc(O)c12 [UM0118473, Quercetine dihydrate]		15.71%	6.69%	69.64%	83.29%	
